*1 amine or outer side, *2 acyl side, *3 side chain or, on linkers, in order; H or OH if unused. Where a SMILES comes first, the peptide text is derived from it. Side-chain parts run from the residue outwards. The star is where a group is joined. C18 diacid = O=C(O)CCCCCCCCCCCCCCCCC(=O)*; γGlu = O=C(O)[C@H](CCC(=O)[*:2])N[*:1]; Isovaleryl = CC(C)CC(=O)*; AEEA = NCCOCCOCC(=O)O
Target: T1, Human Neuropeptide Y2 Receptor (Homo sapiens, UniProt P49146)
T1 construct: purchased CHEMICON HTS066M
T1 sequence (P49146 1-381): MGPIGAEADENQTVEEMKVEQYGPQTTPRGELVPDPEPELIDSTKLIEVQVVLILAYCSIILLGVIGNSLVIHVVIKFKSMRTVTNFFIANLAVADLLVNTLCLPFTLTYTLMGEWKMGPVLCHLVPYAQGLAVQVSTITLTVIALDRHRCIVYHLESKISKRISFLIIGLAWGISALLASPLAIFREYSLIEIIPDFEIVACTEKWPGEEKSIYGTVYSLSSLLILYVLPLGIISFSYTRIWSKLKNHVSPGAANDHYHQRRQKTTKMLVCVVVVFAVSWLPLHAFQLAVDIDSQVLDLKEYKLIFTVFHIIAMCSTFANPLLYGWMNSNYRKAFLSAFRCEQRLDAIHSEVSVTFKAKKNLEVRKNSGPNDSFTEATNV
Test: Radioligand binding competition assay (RLB)
Conditions: Table 3; human 125I-PYY (1-36) 0.02 nM, Y2 receptor membranes; read-out: Ki
Protocol: The filtration RLB assay was carried out in 96-well plates in a final volume of 100 μl per well. Freeze-dried test peptides were dissolved in 100% dimethyl sulfoxide (DMSO) to stock solutions of 1 mM and serial dilutions were performed in assay buffer (50 mM HEPES, 5 mM MgCl2, 1 mM CaCl2), pH 7.4) containing 0.2% ovalbumin. […] Next, 80 μL membranes (HTS066M, ChemiSCREEN™ Human Neuropeptide Y2 Receptor Membrane Preparation, CHEMICON) were added to each well to give a final protein concentration of 0.5 μg/well. The plates were sealed and incubated at room temperature for 2 hours in a plate shaker set at 400 rpm. The incubation was stopped by vacuum filtration onto 0.5% poly-ethylene amine (PEI) presoaked GF/C filters using a 96-well FilterMate™ harvester (Perkin Elmer) followed by four washes with 300 μl/well ice-cold wash buffer (50 mM HEPES, 500 mM NaCl, pH7.4). Filter plates were then dried for 60 min at room temperature and the bottom of the plates was sealed with backing tape UniFilter-96. Finally, 50 μl/well scintillation counter cocktail (Microscint20, Packard) was added and the radioactivity was counted in the Packard TopCount NXT scintillation counter. IC50 values (the half maximal inhibitory concentration of the agonist) were calculated by nonlinear regression analysis of sigmoidal dose-response curves.

Row | Structure (SMILES) | Ki [nM]
1 | CC(C)CC(=O)N[C@@H](C)C(=O)N1CCC[C@H]1C(=O)N[C@@H](CCC(=O)O)C(=O)N[C@@H](CCCCNC(=O)COCCOCCNC(=O)COCCOCCNC(=O)CC[C@H](NC(=O)CCCCCCCCCCCCCCCCC(=O)O)C(=O)O)C(=O)N1CCC[C@H]1C(=O)N[C@@H](CCC(=O)O)C(=O)N[C@@H](CCC(=O)O)C(=O)N[C@@H](CC(=O)O)C(=O)N[C@@H](C)C(=O)N[C@@H](C)C(=O)N1CCC[C@H]1C(=O)N[C@@H](CCC(=O)O)C(=O)N[C@@H](CCC(=O)O)C(=O)N[C@@H](CC(C)C)C(=O)N[C@@H](CCC(N)=O)C(=O)N[C@@H](CCC(N)=O)C(=O)N[C@@H](Cc1ccc(O)cc1)C(=O)N[C@@H](Cc1ccc(O)cc1)C(=O)N[C@H](C(=O)N[C@@H](CO)C(=O)N[C@@H](CC(C)C)C(=O)N[C@@H](CCCNC(=N)N)C(=O)N[C@@H](Cc1c[nH]cn1)C(=O)N[C@@H](Cc1ccc(O)cc1)C(=O)N[C@@H](Cc1ccc(O)cc1)C(=O)N[C@@H](CC(N)=O)C(=O)N[C@@H](Cc1c[nH]c2ccccc12)C(=O)N[C@@H](CC(C)C)C(=O)N[C@H](C(=O)N[C@@H](CCCNC(=N)N)C(=O)N[C@@H](CCC(N)=O)C(=O)N[C@@H](CCCNC(=N)N)C(=O)N[C@@H](Cc1ccc(O)cc1)C(N)=O)[C@@H](C)O)C(C)C [Compound 13, N{alpha-4}-(3-methylbutanoyl)-N{epsilon-7}-[2-(2-{2-[2-(2-{2-[(4S)-4-carboxy-4-(17-carboxyheptadecanamido)butanamido]ethoxy}ethoxy)acetamido]ethoxy}ethoxy)acetamido]-[4A,7K,9E,13A,18Q,19Q,22V,28Y,30W,31L]hPYY (4-36)] | 1.29
2 | CC(C)CC(=O)N[C@@H](C)C(=O)N1CCC[C@H]1C(=O)N[C@@H](CCC(=O)O)C(=O)N[C@@H](CCCCNC(=O)COCCOCCNC(=O)COCCOCCNC(=O)CC[C@H](NC(=O)CCCCCCCCCCCCCCCCC(=O)O)C(=O)O)C(=O)N1CCC[C@H]1C(=O)N[C@@H](CCC(=O)O)C(=O)N[C@@H](CCC(=O)O)C(=O)N[C@@H](CC(=O)O)C(=O)N[C@@H](C)C(=O)N[C@@H](CO)C(=O)N1CCC[C@H]1C(=O)N[C@@H](C)C(=O)N[C@@H](CCC(=O)O)C(=O)N[C@@H](CC(C)C)C(=O)N[C@@H](CCC(N)=O)C(=O)N[C@@H](CCCNC(=N)N)C(=O)N[C@@H](Cc1ccc(O)cc1)C(=O)N[C@@H](Cc1ccc(O)cc1)C(=O)N[C@H](C(=O)N[C@@H](CO)C(=O)N[C@@H](CC(C)C)C(=O)N[C@@H](CCCNC(=N)N)C(=O)N[C@@H](Cc1c[nH]cn1)C(=O)N[C@@H](Cc1ccc(O)cc1)C(=O)N[C@@H](Cc1ccc(O)cc1)C(=O)N[C@@H](CC(N)=O)C(=O)N[C@@H](Cc1c[nH]c2ccccc12)C(=O)N[C@@H](CC(C)C)C(=O)N[C@H](C(=O)N[C@@H](CCCNC(=N)N)C(=O)N[C@@H](CCC(N)=O)C(=O)N[C@@H](CCCNC(=N)N)C(=O)N[C@@H](Cc1ccc(O)cc1)C(N)=O)[C@@H](C)O)C(C)C [Compound 17, N{alpha-4}-(3-methylbutanoyl)-N{epsilon-7}-[2-(2-{2-[2-(2-{2-[(4S)-4-carboxy-4-(17-carboxyheptadecanamido)butanamido]ethoxy}ethoxy)acetamido]ethoxy}ethoxy)acetamido]-[4A,7K,9E,15A,18Q,22V,28Y,30W,31L]hPYY (4-36)] | 0.93
3 | CC(C)CC(=O)N[C@@H](C)C(=O)N1CCC[C@H]1C(=O)N[C@@H](CCC(=O)O)C(=O)N[C@@H](CCCCNC(=O)COCCOCCNC(=O)COCCOCCNC(=O)CC[C@H](NC(=O)CCCCCCCCCCCCCCCCC(=O)O)C(=O)O)C(=O)N1CCC[C@H]1C(=O)N[C@@H](CCC(=O)O)C(=O)N[C@@H](CCC(=O)O)C(=O)N[C@@H](CC(=O)O)C(=O)N[C@@H](C)C(=O)N[C@@H](C)C(=O)N1CCC[C@H]1C(=O)N[C@@H](CCC(=O)O)C(=O)N[C@@H](CCC(=O)O)C(=O)N[C@@H](CC(C)C)C(=O)N[C@@H](CCC(N)=O)C(=O)N[C@@H](CCCNC(=N)N)C(=O)N[C@@H](Cc1ccc(O)cc1)C(=O)N[C@@H](Cc1ccc(O)cc1)C(=O)N[C@H](C(=O)N[C@@H](CCC(=O)O)C(=O)N[C@@H](CC(C)C)C(=O)N[C@@H](CCCNC(=N)N)C(=O)N[C@@H](Cc1c[nH]cn1)C(=O)N[C@@H](Cc1ccc(O)cc1)C(=O)N[C@@H](Cc1ccc(O)cc1)C(=O)N[C@@H](CC(N)=O)C(=O)N[C@@H](Cc1c[nH]c2ccccc12)C(=O)N[C@@H](CC(C)C)C(=O)N[C@H](C(=O)N[C@@H](CCCNC(=N)N)C(=O)N[C@@H](CCC(N)=O)C(=O)N[C@@H](CCCNC(=N)N)C(=O)N[C@@H](Cc1ccc(O)cc1)C(N)=O)[C@@H](C)O)C(C)C [Compound 20, N{alpha-4}-(3-methylbutanoyl)-N{epsilon-7}-[2-(2-{2-[2-(2-{2-[(4S)-4-carboxy-4-(17-carboxyheptadecanamido)butanamido]ethoxy}ethoxy)acetamido]ethoxy}ethoxy)acetamido]-[4A,7K,9E,13A,18Q,22V,23E,28Y,30W,31L]hPYY (4-36)] | 2.57

The remaining lines, values ahead:

Row | Ki [nM] | Structure (SMILES)
4 | 2.89 | CC[C@H](C)[C@H](NC(=O)[C@H](CCC(=O)O)NC(=O)[C@H](CCC(=O)O)NC(=O)[C@@H]1CCCN1C(=O)[C@H](CO)NC(=O)[C@H](C)NC(=O)[C@H](CC(=O)O)NC(=O)[C@H](CCC(=O)O)NC(=O)[C@H](CCC(=O)O)NC(=O)[C@@H]1CCCN1C(=O)[C@H](CCCCNC(=O)COCCOCCNC(=O)COCCOCCNC(=O)CC[C@H](NC(=O)CCCCCCCCCCCCCCCCC(=O)O)C(=O)O)NC(=O)[C@H](CCC(=O)O)NC(=O)[C@@H]1CCCN1C(=O)[C@H](C)NC(=O)CC(C)C)C(=O)N[C@@H](CCC(N)=O)C(=O)N[C@@H](CCCNC(=N)N)C(=O)N[C@@H](Cc1ccc(O)cc1)C(=O)N[C@@H](CCC(=O)O)C(=O)N[C@H](C(=O)N[C@@H](CO)C(=O)N[C@@H](CC(C)C)C(=O)N[C@@H](CCCNC(=N)N)C(=O)N[C@@H](Cc1c[nH]cn1)C(=O)N[C@@H](Cc1ccc(O)cc1)C(=O)N[C@@H](Cc1ccc(O)cc1)C(=O)N[C@@H](CC(N)=O)C(=O)N[C@@H](Cc1c[nH]c2ccccc12)C(=O)N[C@@H](CC(C)C)C(=O)N[C@H](C(=O)N[C@@H](CCCNC(=N)N)C(=O)N[C@@H](CCC(N)=O)C(=O)N[C@@H](CCCNC(=N)N)C(=O)N[C@@H](Cc1ccc(O)cc1)C(N)=O)[C@@H](C)O)C(C)C [Compound 15, N{alpha-4}-(3-methylbutanoyl)-N{epsilon-7}-[2-(2-{2-[2-(2-{2-[(4S)-4-carboxy-4-(17-carboxyheptadecanamido)butanamido]ethoxy}ethoxy)acetamido]ethoxy}ethoxy)acetamido]-[4A,7K,9E,17I,18Q,21E,22V,28Y,30W,31L]hPYY (4-36)]
5 | 0.39 | CC(C)CC(=O)N[C@@H](C)C(=O)N1CCC[C@H]1C(=O)N[C@@H](CCC(=O)O)C(=O)N[C@@H](CCCCNC(=O)COCCOCCNC(=O)COCCOCCNC(=O)CC[C@H](NC(=O)CCCCCCCCCCCCCCCCC(=O)O)C(=O)O)C(=O)N1CCC[C@H]1C(=O)N[C@@H](CCC(=O)O)C(=O)N[C@@H](C)C(=O)N[C@@H](CC(=O)O)C(=O)N[C@@H](C)C(=O)N[C@@H](CO)C(=O)N1CCC[C@H]1C(=O)N[C@@H](CCC(=O)O)C(=O)N[C@@H](CCC(=O)O)C(=O)N[C@@H](CC(C)C)C(=O)N[C@@H](CCC(N)=O)C(=O)N[C@@H](CCC(N)=O)C(=O)N[C@@H](Cc1ccc(O)cc1)C(=O)N[C@@H](Cc1ccc(O)cc1)C(=O)N[C@H](C(=O)N[C@@H](CO)C(=O)N[C@@H](CC(C)C)C(=O)N[C@@H](CCCNC(=N)N)C(=O)N[C@@H](Cc1c[nH]cn1)C(=O)N[C@@H](Cc1ccc(O)cc1)C(=O)N[C@@H](Cc1ccc(O)cc1)C(=O)N[C@@H](CC(N)=O)C(=O)N[C@@H](Cc1c[nH]c2ccccc12)C(=O)N[C@@H](CC(C)C)C(=O)N[C@H](C(=O)N[C@@H](CCCNC(=N)N)C(=O)N[C@@H](CCC(N)=O)C(=O)N[C@@H](CCCNC(=N)N)C(=O)N[C@@H](Cc1ccc(O)cc1)C(N)=O)[C@@H](C)O)C(C)C [Compound 19, N{alpha-4}-(3-methylbutanoyl)-N{epsilon-7}-[2-(2-{2-[2-(2-{2-[(4S)-4-carboxy-4-(17-carboxyheptadecanamido)butanamido]ethoxy}ethoxy)acetamido]ethoxy}ethoxy)acetamido]-[4A,7K,9E,10A,18Q,19Q,22V,28Y,30W,31L]hPYY (4-36)] (Isovaleryl-APEK([AEEA-AEEA-γGlu-C18 diacid])PEADASPEELQQYYVSLRHYYNWLTRQRY-NH2)

From patent US12559529B2, “NPY2 receptor agonists” (Boehringer Ingelheim International GmbH, priority 2019, dated 2026)
